Experiments:
[1] = target: T1, Calcitonin gene-related peptide type 1 receptor (Homo sapiens, UniProt O60894+Q16602); test: Displacement of [125I]hCGRP from human cloned CGRP receptor expressed in HEK293 cells; type: cell-based
[2] = target: T1, Calcitonin gene-related peptide type 1 receptor; test: Antagonist activity at human cloned CGRP receptor expressed in HEK293 cells assessed as inhibition of CGRP-induced cAMP production; type: functional, cell-based

T1 sequence (Q16602 whole entry, one chain of several): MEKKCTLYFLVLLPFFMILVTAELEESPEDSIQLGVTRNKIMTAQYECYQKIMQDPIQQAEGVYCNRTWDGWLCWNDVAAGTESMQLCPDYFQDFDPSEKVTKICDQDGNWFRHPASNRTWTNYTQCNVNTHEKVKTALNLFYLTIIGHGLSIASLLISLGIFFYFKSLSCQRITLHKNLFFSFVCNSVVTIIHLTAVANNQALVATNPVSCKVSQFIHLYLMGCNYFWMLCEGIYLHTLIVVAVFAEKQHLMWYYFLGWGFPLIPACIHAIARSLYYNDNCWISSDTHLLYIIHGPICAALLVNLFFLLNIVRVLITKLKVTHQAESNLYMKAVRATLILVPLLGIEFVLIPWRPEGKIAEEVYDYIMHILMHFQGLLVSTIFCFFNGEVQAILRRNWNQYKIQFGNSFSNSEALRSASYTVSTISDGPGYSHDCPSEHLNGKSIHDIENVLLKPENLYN

| SMILES | Ki [1] [nM] | IC50 [2] [nM] |
| --- | --- | --- |
| CN1C(=O)NC(=O)[C@@]12Cc1ccc(NC(=O)CN(Cc3cc(F)cc(F)c3)C(=O)C(C)(C)C)cc1C2 | 0.55 | – |
| CC1(C)CC[C@@H](c2c(F)cccc2F)N(CC(=O)Nc2ccc3c(c2)C[C@]2(C3)C(=O)Nc3ncccc32)C1=O | 0.035 | 0.12 |
| CN1C(=O)NC(=O)C12Cc1ccc(NC(=O)CN(Cc3cccc(C#N)c3)C(=O)C(C)(C)C)cc1C2 (racemic) | 23 | – |
| C[C@H](c1cc(F)cc(F)c1)N(CC(=O)Nc1ccc2c(c1)C[C@@]1(C2)C(=O)NC(=O)N1C)C(=O)C(C)(C)C | 0.26 | – |
| CN1C(=O)NC(=O)[C@@]12Cc1ccc(NC(=O)CN(Cc3cc(F)cc(Cl)c3)C(=O)C(C)(C)C)cc1C2 | 1.2 | – |
| CN1C(=O)NC(=O)C12Cc1ccc(NC(=O)CN(Cc3ccccc3F)C(=O)C(C)(C)C)cc1C2 (racemic) | 14 | – |
| Cc1cccc(CN(CC(=O)Nc2ccc3c(c2)CC2(C3)C(=O)NC(=O)N2C)C(=O)C(C)(C)C)c1 (racemic) | 7.9 | – |
| CN1C(=O)NC(=O)[C@@]12Cc1ccc(NC(=O)CN(Cc3cc(Cl)cc(Cl)c3)C(=O)C(C)(C)C)cc1C2 | 4.4 | – |
| CN1C(=O)NC(=O)C12Cc1ccc(NC(=O)CN(Cc3ccc(F)cc3)C(=O)C(C)(C)C)cc1C2 (racemic) | 3.7 | – |
| CN1C(=O)NC(=O)C12Cc1ccc(NC(=O)CN(Cc3ccc(C(F)(F)F)cc3)C(=O)C(C)(C)C)cc1C2 (racemic) | 25 | – |
| COc1cccc(CN(CC(=O)Nc2ccc3c(c2)CC2(C3)C(=O)NC(=O)N2C)C(=O)C(C)(C)C)c1 (racemic) | 45 | – |
| CN1C(=O)NC(=O)C12Cc1ccc(NC(=O)CN(Cc3cccc(F)c3)C(=O)C(C)(C)C)cc1C2 (racemic) | 1.6 | – |
| C[C@@H](c1ccccc1)N(CC(=O)Nc1ccc2c(c1)C[C@@]1(C2)C(=O)NC(=O)N1C)C(=O)C(C)(C)C | 56 | – |
| CN1C(=O)NC(=O)C12Cc1ccc(NC(=O)CN(Cc3cccc(Cl)c3)C(=O)C(C)(C)C)cc1C2 (racemic) | 1.8 | – |
| C[C@H](c1ccccc1)N(CC(=O)Nc1ccc2c(c1)C[C@@]1(C2)C(=O)NC(=O)N1C)C(=O)C(C)(C)C | 0.83 | – |
| NCC12CC(=O)Nc3cccc(c31)N(Cc1ccc3cc4c(cc3n1)C[C@]1(C4)C(=O)Nc3ncccc31)C2=O (stereo partly drawn) | 0.13 | 0.62 |

— ChEMBL document CHEMBL1156010, “Novel CGRP receptor antagonists through a design strategy of target simplification with addition of molecular flexibility” (Bioorg Med Chem Lett, 2009)
